Data: ChEMBL document CHEMBL5226289, “Discovery of natural anti-inflammatory alkaloids: Potential leads for the drug discovery for the treatment of inflammation” (Eur J Med Chem, 2021)

Tested on: not listed separately
Test: Inhibition of TNF-alpha production in LPS-stimulated human PBMC cells
Type: functional, cell-based
Settings: not given
In the case of COc1cc(Cc2ccc3c(c2)[nH]c2c4c(c(C)cc23)OC(C)(CCC=C(C)C)C=C4)cc2c1[nH]c1ccccc12 (stereo unspecified), the IC50 is reported as 10 µM.

Tested on: not listed separately
Test: Inhibition of NO production in LPS-stimulated mouse BV-2 cells preincubated with compound for 1 hrs followed by LPS stimulation and measured after 24 hrs by Griess reagent-based assay
Type: functional, cell-based
Settings: not given
With O=Cc1cc2c(cc1O)[nH]c1cc(O)ccc12 [CLAUSINE O] the IC50 was 6.4 µM. In the case of COc1ccc2c(c1)[nH]c1cc(OC)c(C(=O)O)cc12 [CLAUSINE K], the IC50 is reported as 4.6 µM. COc1c(CC=C(C)C)c(C=O)cc2c1[nH]c1cc(O)ccc12 gave an IC50 of 10.9 µM. Work on CO[C@H]1[C@@H]2C[C@]34CCCCCCCCCCn5ccc2c5C(=O)[C@@H]3[C@H]2[C@H](O)CCCCCCCC[N@@+]21C4 yielded an IC50 of 2.1 µM. Compound CO[C@H]1[C@@H]2C[C@]34CCCCCCCCCCn5ccc2c5C(=O)[C@@H]3[C@H]2C(O)C/C=C\C/C=C\CCC[N@@+]21C4 (stereo partly specified) has an IC50 of 1.1 µM.

Tested on: not listed separately
Test: Antiinflammatory activity in rat polymorphonuclear leucocyte cells assessed as inhibition of PAF-induced beta-glucuronidase release at 10 uM relative to control
Type: functional
Settings: not given
Compound COC1O[C@H]([C@H]2c3cc4c(cc3CCN2C)OCO4)c2ccc3c(c21)OCO3 (stereo partly specified) has an inhibition at 10 µM of 37.7%. Compound CN1Cc2cc3c(cc2Cc2ccc4c(c2C1)OCO4)OCO3 has an inhibition at 10 µM of 39.6%. Work on C[C@@H]1C(=O)O[C@H]2C(O)C34[C@H]5C[C@@H](C(C)(C)C)[C@]36[C@@H](OC(=O)[C@@H]6O)O[C@@]4(C(=O)O5)[C@@]12O (stereo partly specified) yielded an inhibition at 10 µM of 51.3%. With CN1CCc2cc3c(cc2[C@@H]1[C@H]1OC(O)c2c1ccc1c2OCO1)OCO3 (stereo partly specified) the inhibition at 10 µM was 36.5%. Work on CN1CCc2cc3c(cc2[C@@H]1[C@H]1OC(=O)c2c1ccc1c2OCO1)OCO3 yielded an inhibition at 10 µM of 34.8%.

Molecular target: Prostaglandin G/H synthase 1 (Homo sapiens, UniProt P23219)
Sequence (P23219 whole entry): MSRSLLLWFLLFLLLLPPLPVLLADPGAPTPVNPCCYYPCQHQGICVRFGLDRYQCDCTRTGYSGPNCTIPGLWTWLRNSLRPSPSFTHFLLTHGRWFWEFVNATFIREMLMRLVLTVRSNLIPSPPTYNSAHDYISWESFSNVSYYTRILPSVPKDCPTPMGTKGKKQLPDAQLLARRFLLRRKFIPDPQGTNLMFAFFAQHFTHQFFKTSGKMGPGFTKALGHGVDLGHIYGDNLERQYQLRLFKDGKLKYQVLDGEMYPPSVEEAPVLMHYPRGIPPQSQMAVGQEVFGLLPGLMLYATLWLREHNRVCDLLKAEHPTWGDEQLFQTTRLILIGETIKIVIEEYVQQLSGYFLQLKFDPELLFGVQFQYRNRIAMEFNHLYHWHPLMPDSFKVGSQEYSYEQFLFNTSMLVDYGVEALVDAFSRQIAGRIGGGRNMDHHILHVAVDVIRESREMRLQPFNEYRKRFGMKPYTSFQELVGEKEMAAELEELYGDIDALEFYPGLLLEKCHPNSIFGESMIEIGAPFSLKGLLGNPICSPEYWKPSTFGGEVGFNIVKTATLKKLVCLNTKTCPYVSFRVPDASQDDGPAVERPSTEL
Test: Inhibition of COX-1 (unknown origin) using arachidonic acid as substrate at 100 uM preincubated for 5 mins followed by substrate addition and measured after 15 mins relative to control
Settings: time 20.0 min
In the case of COc1cc2c(cc1O)CN1CC[C@H]2C(=O)C[C@@H](O[C@@H]2O[C@H](CO)[C@@H](OC)[C@H](OC)[C@H]2OC)[C@H](O)C1=O, the inhibition is reported as greater than 64%. Compound COc1cc2c(cc1OC)[C@H]1CCN(C2)C(=O)[C@@H](O)[C@H](O[C@@H]2O[C@H](C)[C@@H](OC)[C@@H]3OCOCO[C@@H]23)CC1=O has an inhibition greater than 64%. Work on CO[C@H]1[C@@H]2OCOCO[C@H]2[C@H](O[C@@H]2CC(=O)[C@@H]3CCN(Cc4cc5c(cc43)OCO5)C(=O)[C@H]2O)O[C@@H]1C yielded an inhibition greater than 64%. COc1cc2c(cc1OC)[C@H]1CCN(C2)C(=O)[C@@H](O)[C@H](O[C@@H]2O[C@H](C)[C@@H](OC)[C@H](OC)[C@H]2OC)CC1=O showed an inhibition greater than 64%. With COc1c2c(cc3c1OCO3)[C@H]1CCN(C2)C(=O)[C@@H](O)[C@H](O[C@@H]2O[C@H](CO)[C@@H](OC)[C@H](OC)[C@H]2OC)CC1=O the inhibition was greater than 64%.

Tested on: HEp-2
Test: Cytotoxicity against human HEp-2 cells assessed as inhibition of cell growth incubated for 48 hrs by MTT assay
Type: functional, cell-based
Settings: HEp-2, 48 h, pooled result: one value given for 7 cell lines, strains, targets or settings
In the case of COC1=CC(=O)c2cc3c4c(cc(O)c(OC)c4c2C1=O)CCN3C, the IC50 is reported as 8.7 µM. COC1=CC(=O)c2cc3c4c(cc(OC)c(OC)c4c2C1=O)CCN3C gave an IC50 of 10.5 µM. COc1ccc2c(cc3c4c(cc5c(c42)OCO5)CCN3C)c1O showed an IC50 of 28.9 µM.

Tested on: RAW264.7
Test: Antiinflammatory activity against LPS-stimulated mouse RAW264.7 cells assessed as inhibition of TNFalpha production at 20 uM preincubated for 27 hrs followed by LPS stimulation and measured after 12 hrs by ELISA analysis relative to control
Type: functional
Settings: time 39 hrs
CC1(C)C=Cc2c(ccc3c2NC(=O)[C@@]32C[C@]34NC(=O)[C@]5(CCCN5C3=O)C[C@H]4C2(C)C)O1 showed an inhibition at 20 µM greater than 32.6%. In the case of CC1(C)C=Cc2c(ccc3c4c(n(S(C)(=O)=O)c23)C(C)(C)[C@@H]2C[C@]35CCCN3C(=O)[C@]2(C4)NC5=O)O1, the inhibition at 20 µM is reported as greater than 32.6%. For C=CC(C)(C)[C@@]1(C[C@@H]2NC(=O)[C@@H]3CCCN3C2=O)C(=O)Nc2c1ccc(O)c2CC=C(C)C, the inhibition at 20 µM was greater than 32.6%. With CC1(C)C=Cc2c(ccc3c4c([nH]c23)C(C)(C)[C@@H]2C[C@]35CCCN3C(=O)[C@]2(C4)NC5=O)O1 the inhibition at 20 µM was greater than 32.6%.

Tested on: RAW264.7
Test: Inhibition of NO production in LPS-induced mouse RAW264.7 cells
Type: functional, cell-based
Settings: not given
CN1CCc2cc3c(c4c2[C@H]1Cc1c(O)cccc1-4)OCO3 showed an IC50 of 1.39 µM. In the case of C[C@@H]1C[C@@H]2CCCN2[C@H](CC(=O)C[C@H]2N3CCC[C@H]3C[C@@H](C)[C@]2(O)c2ccccc2)[C@H]1c1ccccc1, the IC50 is reported as 16.1 µM. Compound COC1=C[C@@]23CCN(C)[C@@H](Cc4c(CN5CCc6cc(OC)c(OC)c7c6[C@H]5CC75C=CC(=O)C=C5)cc(OC)c(O)c42)C3=CC1=O has an IC50 of 1.39 µM. C[C@@H]1C[C@H]2[C@@H]3CCC4=CC(=O)C=C[C@]4(C)[C@@]3(F)[C@@H](O)C[C@]2(C)[C@@]1(O)C(=O)CO [DEXAMETHASONE] showed an IC50 of 47 µM. In the case of C[C@@H]1C[C@@H]2CC[C@@H]3[C@@H](C(=O)C[C@@H]4N5CCCC5C[C@H](C)[C@@]4(O)c4ccccc4)[C@](C)(O)C[C@H](N23)[C@@]1(O)c1ccccc1 (stereo partly specified), the IC50 is reported as 14.3 µM. Work on O=C(O)c1cc(C(=O)c2ccco2)n2c1CCC2 yielded an IC50 of 22.8 µM.

Tested on: RAW264.7
Test: Antiinflammatory activity against LPS-stimulated mouse RAW264.7 cells assessed as inhibition of IL-1beta production at 20 uM preincubated for 27 hrs followed by LPS stimulation and measured after 12 hrs by ELISA analysis relative to control
Type: functional
Settings: time 39 hrs
With CC1(C)C=Cc2c(ccc3c2NC(=O)[C@@]32C[C@]34NC(=O)[C@]5(CCCN5C3=O)C[C@H]4C2(C)C)O1 the inhibition at 20 µM was greater than 32.6%. Compound CC1(C)C=Cc2c(ccc3c4c(n(S(C)(=O)=O)c23)C(C)(C)[C@@H]2C[C@]35CCCN3C(=O)[C@]2(C4)NC5=O)O1 has an inhibition at 20 µM greater than 32.6%. C=CC(C)(C)[C@@]1(C[C@@H]2NC(=O)[C@@H]3CCCN3C2=O)C(=O)Nc2c1ccc(O)c2CC=C(C)C gave an inhibition at 20 µM greater than 32.6%. Compound CC1(C)C=Cc2c(ccc3c4c([nH]c23)C(C)(C)[C@@H]2C[C@]35CCCN3C(=O)[C@]2(C4)NC5=O)O1 has an inhibition at 20 µM greater than 32.6%.

Tested on: RAW264.7
Test: Antiinflammatory activity against LPS-stimulated mouse RAW264.7 cells assessed as inhibition of IL-6 production incubated for 24 hrs by ELISA analysis relative to control
Type: functional
Settings: not given
With O=c1cccc2n1C[C@@H]1C[C@H]2CN2CCCC[C@@H]12 the “inhibition (INH)” value was greater than 40%. With O=C1C=CC[C@@H]2[C@H]3CCCN4CCC[C@@H](CN12)[C@@H]34 [SOPHOCARPINE] the “inhibition (INH)” value was greater than 40%. For O=C1C(O)=CC[C@@H]2[C@H]3CCCN4CCC[C@@H](CN12)[C@@H]34, the “inhibition (INH)” value was greater than 40%. With O=c1cccc2n1C[C@@H]1CCCN3CCC[C@@H]2[C@H]13 the “inhibition (INH)” value was greater than 40%.

Tested on: RAW264.7
Test: Inhibition of NO production in LPS-stimulated mouse RAW264.7 cells incubated for 24 hrs by Griess reagent-based assay
Type: functional, cell-based
Settings: RAW264.7, 24 h
O=C1C=CC2=NC=CC3c4ccc(O)cc4N1C23 (stereo unspecified) gave an IC50 of 7.7 µM. For O=C1C=CC2=NC=CC3c4ccccc4N1C23 (stereo unspecified), the IC50 was 9.1 µM. C[C@]12CCC(=O)C=C1CC[C@@H]1[C@@H]2[C@@H](O)C[C@@]2(C)[C@H]1CC[C@]2(O)C(=O)CO [HYDROCORTISONE] gave an IC50 of 3.4 µM. In the case of O=C1C=CC2=NC=CC3c4cc(O)ccc4N1C23 (stereo unspecified), the IC50 is reported as 12 µM. Work on O=c1c(CO)ccc2n1CCc1c-2[nH]c2ccccc12 yielded an IC50 of 12 µM. C/C=C1/CN2CC[C@@H]1C(=O)c1[nH]c3ccc(OC)cc3c1C2 gave an IC50 of 2.4 µM. In the case of CN1CCc2cc3c(c4c2[C@H]1Cc1ccccc1-4)OCO3, the IC50 is reported as 1.39 µM. CO[C@@H]1C=C[C@@]23c4cc5c(cc4C(=O)N(CCc4ccccc4)[C@@H]2C(=O)N(C)[C@H]3C1)OCO5 showed an IC50 of 1.39 µM. In the case of C/C=C1\CO[C@H](OC)c2c1cc1n(c2=O)CCc2c-1[nH]c1ccccc21, the IC50 is reported as 3.6 µM. With N=C(N)NN [PIMAGEDINE] the IC50 was 1.8 µM. Work on C=Cc1cncc2c1CC1c3[nH]c4ccccc4c3CCN1C2=O (stereo unspecified) yielded an IC50 of 1.6 µM. In the case of O=C1c2ccccc2-c2c3c(cc4ccnc1c24)OCO3 [LIRIODENINE], the IC50 is reported as 1.39 µM. Work on Cc1[nH]c(C=O)c2c1C(=O)N1CCC3(C(=O)Nc4ccccc43)C1C2 (stereo unspecified) yielded an IC50 of 0.8 µM. In the case of C[C@@H](O)C1=CC2=NC=CC3c4ccccc4N(C1=O)C23 (stereo partly specified), the IC50 is reported as 15.1 µM. Work on Cc1cncc2c1CC1c3[nH]c4ccccc4c3CCN1C2=O (stereo unspecified) yielded an IC50 of 1.3 µM. With O=C(OC[C@@H]1CCN2CCC[C@H]12)c1ccccc1 the IC50 was 25.5 µM. Work on CC[C@H](C)CN1C(=O)c2cc3c(cc2[C@@]24C=C[C@@H](OC)C[C@@H]2N(C)C(=O)[C@@H]14)OCO3 yielded an IC50 of 1.39 µM. With CC[C@@H](C)[C@@H](C)C(=O)OC/C=C(\C)C(=O)OC[C@@H]1CCN2CCC[C@H]12 the IC50 was 38.6 µM. For C/C=C(/C)C(=O)O[C@@H]1CC[N+]2([O-])CC=C(COC(=O)[C@](O)(C(C)C)[C@H](C)OC)[C@H]12 (stereo partly specified), the IC50 was 105 µM.

Tested on: not listed separately
Test: Inhibition of NO production in LPS-stimulated mouse BV-2 cells incubated for 24 hrs by Griess reagent-based assay
Type: functional, cell-based
Settings: BV-2, 24 h
With C[C@H]1CC23C4CCCN2CCCC3[C@H](O)CC4[C@H]1O (stereo partly specified) the IC50 was 4.2 µM. For C[C@@H]1CC2CC(=O)C3CCCN4CCC[C@@]2(O)C34C1 (stereo partly specified), the IC50 was 4.2 µM. In the case of C[C@@H]1CC2CC(=O)C3CCCN4CCCC2C34C1 (stereo partly specified), the IC50 is reported as 4.2 µM. Compound CC(=O)O[C@@H]1CC2C3CCCN4CCCC1C34C[C@H](C)[C@H]2O (stereo partly specified) has an IC50 of 4.2 µM. Work on C[C@@H]1CC2CC(=O)C3CCCN4CC[C@@H](O)[C@]2(O)C34C1 (stereo partly specified) yielded an IC50 of 4.2 µM. CC(=O)O[C@@H]1C2C[C@@H](OC(C)=O)C3CCCN4CCC[C@@]2(O)C34C[C@@H]1C (stereo partly specified) gave an IC50 of 4.2 µM.

Tested on: RAW264.7
Test: Antiinflammatory activity against LPS-stimulated mouse RAW264.7 cells assessed as inhibition of TNF-alpha production incubated for 24 hrs by ELISA analysis relative to control
Type: functional
Settings: not given
In the case of O=c1cccc2n1C[C@@H]1C[C@H]2CN2CCCC[C@@H]12, the “inhibition (INH)” value is reported as greater than 40%. With O=C1C=CC[C@@H]2[C@H]3CCCN4CCC[C@@H](CN12)[C@@H]34 [SOPHOCARPINE] the “inhibition (INH)” value was greater than 40%. In the case of O=C1C(O)=CC[C@@H]2[C@H]3CCCN4CCC[C@@H](CN12)[C@@H]34, the “inhibition (INH)” value is reported as greater than 40%. With O=c1cccc2n1C[C@@H]1CCCN3CCC[C@@H]2[C@H]13 the “inhibition (INH)” value was greater than 40%.
